According to patent US20230203059A1, “MACROCYCLIC JAK INHIBITOR AND USES THEREOF” (Biopolar Hongye (Guangdong) Pharmaceutical Co. Ltd., priority 2020, published 2023):

Experiments:
Format in all cases: biochemical
JAK1 = JAK1 (Homo sapiens, UniProt P23458); test: JAK kinase activity, homogeneous time-resolved fluorescence (JAK1 reaction system); conditions: ATP 2 μM, JAK1 protein 0.2 ng/μL; read-out: JAK 1 activity
Protocol: (§1) The activity measurement method of JAK kinase was to use homogeneous time-resolved fluorescence technique. The reaction was performed in 384 shallow well plates with a total reaction volume of 10 μL. The mixture of kinase protein, compound, ATP and substrate was carried out in a reaction buffer of 50 mM Hepes (pH7.0), NaN3 0.02%, BSA 0.01%, 0.1 mM Orthocanadate, 5 mM MgCl2, and 1 mM DTT. After reacting for 1 hour, an antibody capable of recognizing substrate phosphorylation, dye XL-615 and detection buffer (Cisbio) containing EDTA were added to the system. The reaction signal of kinase was detected by PE company's porous plate detector. The parameter settings were excitation light at 320 nm, emission light at 615 nm and 665 nm. The activity of JAK is indirectly reflected by the signal ratio of 665 nm and 615 nm. In the reaction, the background well without enzyme and the total enzyme activity well without compound were set.
(§2) The IC50 value of the compound inhibiting protein was obtained by the formula: Y=100/(1+10^((Log IC50−X)*HillSlope)). In JAK1 reaction system, the concentration of ATP was 2 μM, and the concentration of JAK1 protein was 0.2 ng/μL.

JAK3 = biological target: T1, JAK3 (Homo sapiens, UniProt P52333); test: JAK kinase activity, homogeneous time-resolved fluorescence (JAK3 reaction system); conditions: ATP 2 μM, JAK3 protein 0.04 ng/μL; read-out: JAK 3 activity
T1 sequence (P52333 1-1124): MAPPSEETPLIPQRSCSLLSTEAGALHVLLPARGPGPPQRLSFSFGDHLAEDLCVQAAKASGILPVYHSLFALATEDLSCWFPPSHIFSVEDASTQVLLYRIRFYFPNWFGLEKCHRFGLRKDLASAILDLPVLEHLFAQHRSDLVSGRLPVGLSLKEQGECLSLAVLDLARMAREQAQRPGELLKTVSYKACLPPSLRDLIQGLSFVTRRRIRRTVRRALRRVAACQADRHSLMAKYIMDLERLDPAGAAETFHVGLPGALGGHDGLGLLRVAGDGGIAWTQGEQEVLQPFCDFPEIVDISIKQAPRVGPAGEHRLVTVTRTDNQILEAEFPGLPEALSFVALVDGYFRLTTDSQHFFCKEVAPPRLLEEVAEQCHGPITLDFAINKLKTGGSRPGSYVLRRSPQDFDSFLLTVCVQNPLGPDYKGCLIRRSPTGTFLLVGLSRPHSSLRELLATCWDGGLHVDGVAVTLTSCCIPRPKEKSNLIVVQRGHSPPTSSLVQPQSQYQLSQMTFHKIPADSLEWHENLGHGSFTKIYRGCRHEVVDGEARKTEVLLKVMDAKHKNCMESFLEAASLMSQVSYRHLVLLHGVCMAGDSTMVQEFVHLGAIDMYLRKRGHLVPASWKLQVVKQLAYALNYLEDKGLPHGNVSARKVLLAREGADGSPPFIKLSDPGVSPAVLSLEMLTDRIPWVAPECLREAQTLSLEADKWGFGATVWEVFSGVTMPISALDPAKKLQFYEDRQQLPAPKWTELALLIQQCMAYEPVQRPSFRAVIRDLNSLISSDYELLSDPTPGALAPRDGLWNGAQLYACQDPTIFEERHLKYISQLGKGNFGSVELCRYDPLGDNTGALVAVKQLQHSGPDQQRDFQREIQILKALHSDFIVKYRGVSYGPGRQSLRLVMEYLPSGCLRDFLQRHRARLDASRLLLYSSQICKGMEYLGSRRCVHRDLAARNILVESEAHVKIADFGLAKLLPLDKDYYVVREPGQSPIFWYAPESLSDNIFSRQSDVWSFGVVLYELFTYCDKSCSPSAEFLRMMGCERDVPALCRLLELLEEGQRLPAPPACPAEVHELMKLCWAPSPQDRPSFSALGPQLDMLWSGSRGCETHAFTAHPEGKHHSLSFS
Protocol: as §1, with “The reaction was performed in 384 shallow well plates with a total reaction volume of 10 μL.” left out, “After reacting for 1 hour, an antibody capable of recognizing substrate phosphorylation, dye XL-615 and detection buffer (Cisbio) containing EDTA were added to the system.” left out, “set. […]” for “set.”
In JAK3 reaction system, the concentration of ATP was 2 μM, and the concentration of JAK3 protein was 0.04 ng/μL.

JAK2 = JAK2 (Homo sapiens, UniProt O60674); test: JAK kinase activity, homogeneous time-resolved fluorescence (JAK2 reaction system); conditions: ATP 2 μM, JAK2 protein 0.01 ng/μL
JAK2, sequence (O60674 whole entry): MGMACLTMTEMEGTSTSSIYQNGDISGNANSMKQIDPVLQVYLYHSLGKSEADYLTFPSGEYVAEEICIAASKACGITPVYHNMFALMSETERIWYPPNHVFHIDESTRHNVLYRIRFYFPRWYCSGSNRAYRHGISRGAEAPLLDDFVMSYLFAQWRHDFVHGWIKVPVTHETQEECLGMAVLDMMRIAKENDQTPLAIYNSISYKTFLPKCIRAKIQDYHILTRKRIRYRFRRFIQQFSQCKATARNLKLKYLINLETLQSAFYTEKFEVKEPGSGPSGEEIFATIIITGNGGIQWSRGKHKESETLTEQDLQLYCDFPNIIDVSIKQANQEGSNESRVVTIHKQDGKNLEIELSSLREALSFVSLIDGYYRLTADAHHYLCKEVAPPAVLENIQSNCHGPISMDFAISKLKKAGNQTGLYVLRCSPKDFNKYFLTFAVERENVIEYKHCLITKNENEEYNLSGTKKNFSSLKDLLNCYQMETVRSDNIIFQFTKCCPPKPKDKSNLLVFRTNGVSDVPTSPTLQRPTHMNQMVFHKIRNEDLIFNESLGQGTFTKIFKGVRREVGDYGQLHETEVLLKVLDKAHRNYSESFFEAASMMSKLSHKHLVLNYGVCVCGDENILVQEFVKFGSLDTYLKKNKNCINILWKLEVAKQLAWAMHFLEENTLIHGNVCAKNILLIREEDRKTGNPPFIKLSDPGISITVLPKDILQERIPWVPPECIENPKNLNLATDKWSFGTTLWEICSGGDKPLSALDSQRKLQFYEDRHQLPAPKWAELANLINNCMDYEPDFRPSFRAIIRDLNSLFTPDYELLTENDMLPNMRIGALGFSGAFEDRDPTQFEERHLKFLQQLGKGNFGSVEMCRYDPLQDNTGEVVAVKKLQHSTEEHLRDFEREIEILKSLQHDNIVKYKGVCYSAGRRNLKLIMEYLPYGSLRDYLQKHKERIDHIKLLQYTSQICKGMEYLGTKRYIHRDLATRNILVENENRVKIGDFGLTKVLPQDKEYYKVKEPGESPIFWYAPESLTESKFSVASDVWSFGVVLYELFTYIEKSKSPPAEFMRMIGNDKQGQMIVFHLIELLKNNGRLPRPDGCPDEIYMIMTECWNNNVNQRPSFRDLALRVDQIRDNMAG
Protocol: as §1, §2
In JAK2 reaction system, the concentration of ATP was 2 μM, and the concentration of JAK2 protein was 0.01 ng/μL.

TYK2 = TYK2 (Homo sapiens, UniProt P29597); test: JAK kinase activity, homogeneous time-resolved fluorescence (TYK2 reaction system); conditions: ATP 2 μM, TYK2 protein 0.2 ng/μL; read-out: TYK 2 activity
TYK2, sequence (P29597 whole entry): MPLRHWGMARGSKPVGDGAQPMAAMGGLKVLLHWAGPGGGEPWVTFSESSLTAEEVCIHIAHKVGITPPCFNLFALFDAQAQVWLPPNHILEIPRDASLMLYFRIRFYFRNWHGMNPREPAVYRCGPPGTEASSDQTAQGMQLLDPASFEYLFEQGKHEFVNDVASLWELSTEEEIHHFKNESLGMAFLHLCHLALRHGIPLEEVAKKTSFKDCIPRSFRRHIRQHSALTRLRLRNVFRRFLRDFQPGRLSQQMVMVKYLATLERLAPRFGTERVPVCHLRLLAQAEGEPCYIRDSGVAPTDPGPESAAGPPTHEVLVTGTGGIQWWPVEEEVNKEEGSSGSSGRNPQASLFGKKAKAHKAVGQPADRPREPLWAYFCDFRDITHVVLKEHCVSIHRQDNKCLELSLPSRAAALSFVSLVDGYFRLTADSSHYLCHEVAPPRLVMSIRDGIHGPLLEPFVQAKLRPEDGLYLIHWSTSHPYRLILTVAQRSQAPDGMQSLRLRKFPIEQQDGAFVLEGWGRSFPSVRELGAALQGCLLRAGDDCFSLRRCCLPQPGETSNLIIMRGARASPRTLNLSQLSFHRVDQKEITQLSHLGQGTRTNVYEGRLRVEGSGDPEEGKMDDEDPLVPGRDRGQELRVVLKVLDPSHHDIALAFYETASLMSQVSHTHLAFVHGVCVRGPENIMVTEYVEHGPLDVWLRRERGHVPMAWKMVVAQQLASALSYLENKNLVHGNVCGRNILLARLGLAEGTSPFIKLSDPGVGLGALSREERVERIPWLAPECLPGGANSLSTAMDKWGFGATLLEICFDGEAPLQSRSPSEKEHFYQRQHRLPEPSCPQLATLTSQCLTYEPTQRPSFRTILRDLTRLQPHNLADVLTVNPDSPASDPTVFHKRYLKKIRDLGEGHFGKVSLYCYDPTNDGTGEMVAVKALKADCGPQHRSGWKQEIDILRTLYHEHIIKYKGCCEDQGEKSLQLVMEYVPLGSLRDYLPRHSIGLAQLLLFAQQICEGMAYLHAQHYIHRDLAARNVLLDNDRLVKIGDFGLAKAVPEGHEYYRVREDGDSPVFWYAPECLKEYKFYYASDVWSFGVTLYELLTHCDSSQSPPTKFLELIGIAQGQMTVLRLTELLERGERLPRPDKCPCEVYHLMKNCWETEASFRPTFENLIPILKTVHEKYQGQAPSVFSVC
Protocol: as §1, §2
In TYK2 reaction system, the concentration of ATP was 2 μM, and the concentration of TYK2 protein was 0.2 ng/μL.

JAK1, sequence (P23458 whole entry): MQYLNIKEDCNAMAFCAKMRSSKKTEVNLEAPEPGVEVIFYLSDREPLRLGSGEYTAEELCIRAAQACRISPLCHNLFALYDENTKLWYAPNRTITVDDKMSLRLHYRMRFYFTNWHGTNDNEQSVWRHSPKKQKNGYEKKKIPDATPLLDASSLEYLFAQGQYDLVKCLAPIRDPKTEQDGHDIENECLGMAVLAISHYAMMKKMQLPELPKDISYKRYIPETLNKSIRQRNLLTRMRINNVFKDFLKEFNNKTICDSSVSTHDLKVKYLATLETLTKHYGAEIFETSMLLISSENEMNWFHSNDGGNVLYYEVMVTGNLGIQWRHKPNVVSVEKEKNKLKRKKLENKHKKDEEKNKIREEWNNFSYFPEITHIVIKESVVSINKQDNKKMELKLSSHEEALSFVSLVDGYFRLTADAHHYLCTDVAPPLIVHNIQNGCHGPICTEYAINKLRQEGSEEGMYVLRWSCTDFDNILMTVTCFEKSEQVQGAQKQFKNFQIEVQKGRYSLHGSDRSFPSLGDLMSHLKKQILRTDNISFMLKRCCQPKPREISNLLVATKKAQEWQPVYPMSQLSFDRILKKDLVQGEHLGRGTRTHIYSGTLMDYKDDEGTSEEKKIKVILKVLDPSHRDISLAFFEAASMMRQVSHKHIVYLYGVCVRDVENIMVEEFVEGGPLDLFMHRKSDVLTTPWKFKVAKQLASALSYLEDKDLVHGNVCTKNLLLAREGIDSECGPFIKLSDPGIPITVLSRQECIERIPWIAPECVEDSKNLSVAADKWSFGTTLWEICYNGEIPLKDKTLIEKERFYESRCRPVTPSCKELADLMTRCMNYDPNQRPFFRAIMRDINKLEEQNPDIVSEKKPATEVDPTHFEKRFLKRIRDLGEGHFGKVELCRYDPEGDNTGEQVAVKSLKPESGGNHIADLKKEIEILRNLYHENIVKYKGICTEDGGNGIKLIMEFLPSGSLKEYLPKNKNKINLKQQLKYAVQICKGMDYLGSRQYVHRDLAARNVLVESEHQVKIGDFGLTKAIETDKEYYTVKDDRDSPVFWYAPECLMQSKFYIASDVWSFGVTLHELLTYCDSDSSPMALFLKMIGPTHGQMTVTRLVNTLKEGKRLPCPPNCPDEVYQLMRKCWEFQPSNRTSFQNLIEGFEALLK

Row | SMILES | IC50 (JAK1) | IC50 (JAK3) | IC50 (JAK2) | IC50 (TYK2)
1 | C[C@@H]1CCOCc2cc(ccc2OC2CCCC2)Nc2nccc(n2)-c2ccc(cc2N)C(=O)NC1 [Example 185, (R)-1-amino-4^4-(cyclopentoxy)-9-methyl-6-oxa-3,11-diaza-2(4,2)-py-rimidina-1(1,4),4(1,3)-dibenzena-cyclododecaphan-12-one] | 1000 to 10000 nM | 11 to 100 nM | 101 to 1000 nM | 1000 to 10000 nM
2 | O=C1NCCCCOCc2cc(ccc2OCC2CCCOC2)Nc2nccc(n2)-c2ccc1cc2[N+](=O)[O-] (centres unmarked) [Example 146, 1^2-nitro-4^4-((tetrahydro-2H-pyran-3-yl)methoxy)-6-oxa-3,11-diaza-2(4,2)-pyrimidina-1(1,4),4(1,3)-dibenzenacyclododecaphan-12-one] | > 10000 nM | 101 to 1000 nM | 1000 to 10000 nM | > 10000 nM
3 | Nc1cc2ccc1-c1ccnc(n1)Nc1ccc(N3CCSCC3)c(c1)COCCCCNC2=O [Example 66, 1^2-amino-4-thiomorpholin-6-oxa-3,11-diaza-2(4,2)-pyrimidina-1(1,4),4(1,3)-dibenzenacyclo-dodecaphan-12-one] | 101 to 1000 nM | 11 to 100 nM | 11 to 100 nM | 101 to 1000 nM
4 | CNc1cc2ccc1-c1ccnc(n1)Nc1ccc(OC3CC3)c(c1)COCCCCNC2=O [Example 82, 4^4-cyclopropoxy-1^2-methylamino-6-oxa-3,11-diaza-2(4,2)-pyrimidina-1(1,4),4(1,3)-dibenzenacyclododeca-phan-12-one] | 1000 to 10000 nM | 1000 to 10000 nM | 1000 to 10000 nM | > 10000 nM
5 | O=C1NCCCCOCc2cc(cc(F)c2F)Nc2nccc(n2)-c2ccc1cc2[N+](=O)[O-] [Example 93, 4^4,4^5-difluoro-1^2-nitro-6-oxa-3,11-di-aza-2(4,2)-pyrimidina-1(1,4),4(1,3)-dibenzenacyclododecaphan-12-one] | 1000 to 10000 nM | 101 to 1000 nM | 1000 to 10000 nM | > 10000 nM
6 | CC1CCNC(=O)c2ccc(c([N+](=O)[O-])c2)-c2ccnc(n2)Nc2ccc(OC3CCCOC3)c(c2)COC1 (centres unmarked) [Example 137, 8-methyl-1^2-nitro-4^4-((tetrahydro-2H-pyran-3-yl)oxy)-6-oxa-3,11-di-aza-2(4,2)-pyrimidina-1(1,4),4(1,3)-dibenzenacyclododecaphan-12-one] | 1000 to 10000 nM | 101 to 1000 nM | 1000 to 10000 nM | > 10000 nM
7 | Nc1cc2ccc1-c1ccnc(n1)Nc1ccc(OCC3CC(F)(F)C3)c(c1)COCCCCNC2=O [Example 127, 1^2-Amino-4^4-((3,3-difluorocyclo-butyl)methoxy)-6-oxa-3,11-diaza-2(4,2)-pyrimidina-1(1,4),4(1,3)-di-benzenacyclododecaphan-12-one] | 1000 to 10000 nM | < 10 nM | 101 to 1000 nM | 1000 to 10000 nM
8 | Nc1cc2ccc1-c1ccnc(n1)Nc1cccc(c1)COCCCCNC2=O [Example 54, 1^2-amino-6-oxa-3,11-diaza-2(4,2)-py-rimidina-1(1,4),4(1,3)-dibenzena-cyclododecaphan-12-one] | 101 to 1000 nM | 11 to 100 nM | 101 to 1000 nM | 1000 to 10000 nM
9 | Nc1cc2ccc1-c1ccnc(n1)Nc1ccc(OC3CC3)c(c1)COc1ccc(cc1F)NC2=O [Example 199, 1^2-amino-4^4-cyclopropoxy-7^2-fluoro-6-oxa-3,8-diaza-2(4,2)-pyrimidina-1,7(1,4),4(1,3)-tribenzenacyclonona-phane-9-one] | 101 to 1000 nM | 11 to 100 nM | 1000 to 10000 nM | 1000 to 10000 nM
10 | CC(C)Oc1ccc2cc1COc1ccc(cc1)NC(=O)c1ccc(c(N)c1)-c1ccnc(n1)N2 [Example 198, 1^2-amino-4^4-isopropoxy-6-oxa-3,8-diaza-2(4,2)-pyrimidina-1,7(1,4),4(1,3)-tribenzenacyclononaphane-9-one] | 1000 to 10000 nM | 11 to 100 nM | 101 to 1000 nM | 1000 to 10000 nM
11 | Nc1cc2ccc1-c1ccnc(n1)Nc1ccc(OCC3CCOC3)c(c1)COCCCCNC2=O (centres unmarked) [Example 125, 1^2-amino-4^4-((tetrahydrofuran-3-yl)methoxy)-6-oxa-3,11-diaza-2(4,2)-pyrimidina-1(1,4),4(1,3)-dibenz-enacyclododecaphan-12-one] | 101 to 1000 nM | < 10 nM | 101 to 1000 nM | 1000 to 10000 nM
12 | CN(C)c1ccc2cc1COCCCCNC(=O)c1ccc(c(F)c1)-c1ccnc(n1)N2 [Example 28, 1^2-fluoro-4^4-dimethylamino-6-oxa-3,11-diaza-2(4,2)-pyrimidina-1(1,4),4(1,3)-dibenzenacyclododecaphan-12-one] | 101 to 1000 nM | 11 to 100 nM | 11 to 100 nM | 101 to 1000 nM
13 | CC1CCNC(=O)c2ccc(c(N)c2)-c2ccnc(n2)Nc2ccc(OCC3CCC3)c(c2)COC1 (centres unmarked) [Example 142] | 1000 to 10000 nM | 11 to 100 nM | 1000 to 10000 nM | > 10000 nM
14 | O=C1NCCCCOCc2cc(ccc2OC2CC2)Nc2nccc(n2)-c2ccc1cc2[N+](=O)[O-] [Example 73, 4^4-cyclopropoxy-1^2-nitro-6-oxa-3,11-diaza-2(4,2)-pyrimidina-1(1,4),4(1,3)-dibenzenacyclododecaphan-12-one] | 1000 to 10000 nM | 101 to 1000 nM | 1000 to 10000 nM | > 10000 nM
15 | O=C1NCCCCOCc2cc(ccc2OC2CCC2)Nc2nccc(n2)-c2ccc1cc2[N+](=O)[O-] [Example 71, 4^4-cyclobutoxy-1^2-nitro-6-oxa-3,11-diaza-2(4,2)-pyrimidina-1(1,4),4(1,3)-dibenzenacyclododecaphan-12-one] | > 10000 nM | 1000 to 10000 nM | > 10000 nM | > 10000 nM
16 | O=C1NCCCCOCc2cc(cc(N3CCOCC3)c2)Nc2nccc(n2)-c2ccc1cc2 [Example 3, 4^5-morpholin-6-oxa-3,11-diaza-2(4,2)-pyrimidina-1(1,4),4(1,3)-dibenze-nacyclododecaphan-12-one] | 101 to 1000 nM | 101 to 1000 nM | 101 to 1000 nM | > 10000 nM
17 | O=C1NCCCCOCc2cc(cc(N3CCOCC3)c2)Nc2ncc(Cl)c(n2)-c2ccc1cc2 [Example 16, 2^5-chloro-4^5-morpholin-6-oxa-3,11-diaza-2(4,2)-pyrimidina-1(1,4),4(1,3)-dibenzenacyclododecaphan-12-one] | 11 to 100 nM | 11 to 100 nM | 11 to 100 nM | 1000 to 10000 nM
